A short description of data set [1]: Cytotoxicity against mouse BV-2 cells assessed as cell viability at 10 uM by MTT assay relative to control. It counts as toxicity, cell-based. The conditions noted are these: read-out: Activity.
Data set [2] is described as follows: Cytotoxicity against mouse BV-2 cells assessed as cell viability at 1 uM by MTT assay relative to control. Conditions: read-out: Activity. It counts as toxicity, cell-based.
Data set [3] concerns BV-2. Briefly: Antiinflammatory activity in LPS induced mouse BV-2 cells assessed as NO production at 1 uM by Griess reagent based assay relative to control.
For data set [4], the system named is BV-2. As to the kind of experiment: Antiinflammatory activity in LPS induced mouse BV-2 cells assessed as NO production at 10 uM by Griess reagent based assay relative to control.

On to `COc1c2n(cc(C(=O)Nc3ccc(-c4cn(-c5ccccc5)nn4)cc3)c1=O)C[C@@H]1OCC[C@@H](C)N1C2=O`, for which, in data set [1], the viability at 10 µM turned out to be 70.2%. Further, the viability at 1 µM in data set [2] was 104%. For the same compound, the level, % of control at 1 µM with BV-2 [3] came to 88.8%. Also, in the data set with BV-2 [4], the level, % of control at 10 µM amounted to 91.4%.
Take `COc1c2n(cc(C(=O)Nc3cccc(-c4cn(-c5c(C)cc(C)cc5C)nn4)c3)c1=O)C[C@H]1OC[C@H](C)N1C2=O`: the viability at 10 µM in data set [1] is 49.3%. Further, the viability at 1 µM in data set [2] was determined as 94.6%. In addition, the level, % of control at 1 µM in the data set on BV-2 [3] was 116%. For the same compound, the level, % of control at 10 µM in the data set on BV-2 [4] is 89.6%.
In the same order, the values of `CCc1ccccc1-n1cc(-c2ccc(NC(=O)c3cn4c(c(OC)c3=O)C(=O)N3[C@H](C)CCO[C@H]3C4)cc2)nn1` are 123%, 110%, 118% and 60.2%.
In the same order, the values of `CCc1ccccc1-n1cc(-c2ccccc2NC(=O)c2cn3c(c(OC)c2=O)C(=O)N2[C@H](C)CCO[C@H]2C3)nn1` are 94.7%, 111%, 86.7% and 76.3%.
In the same order, the values of `COc1c2n(cc(C(=O)Nc3ccc(-c4cn(-c5ccccc5I)nn4)cc3)c1=O)C[C@@H]1OCC[C@@H](C)N1C2=O` are 98.2%, 110%, 98.2% and 106%.
As to `COc1c2n(cc(C(=O)Nc3ccccc3-c3cn(-c4cc(C(F)(F)F)cc(C(F)(F)F)c4)nn3)c1=O)C[C@@H]1OCC[C@@H](C)N1C2=O`, the viability at 10 µM in data set [1] came to 112%. The viability at 1 µM in data set [2] worked out at 104%. Moreover, the level, % of control at 1 µM with BV-2 [3] was found to be 86.6%. In addition, the level, % of control at 10 µM in the data set on BV-2 [4] was determined as 73%.
On to `COc1c2n(cc(C(=O)Nc3ccccc3-c3cn(-c4ccccc4F)nn3)c1=O)C[C@@H]1OCC[C@@H](C)N1C2=O`, for which, in data set [1], the viability at 10 µM was 98.5%. In addition, the viability at 1 µM in data set [2] stood at 100%. Also, in the data set on BV-2 [3], the level, % of control at 1 µM stood at 86.8%. For the same compound, the level, % of control at 10 µM in the data set on BV-2 [4] was determined as 78.7%.
In the case of `COc1ccccc1-n1cc(-c2cccc(NC(=O)c3cn4c(c(OC)c3=O)C(=O)N3[C@@H](C)CO[C@@H]3C4)c2)nn1`, the viability at 10 µM in data set [1] is 50.4%. The viability at 1 µM in data set [2] is 94.1%. Also, the level, % of control at 1 µM with BV-2 [3] turned out to be 96.5%. Further, the level, % of control at 10 µM in the data set on BV-2 [4] was found to be 68%.
On the same counts, the results for `COc1c2n(cc(C(=O)Nc3cccc(-c4cn(-c5cccc(C(F)(F)F)c5)nn4)c3)c1=O)C[C@@H]1OCC[C@@H](C)N1C2=O` are 16.2%, 47.1%, 99.2% and 2.3%.
In the same order, the values of `COc1c2n(cc(C(=O)Nc3cccc(-c4cn(-c5ccc(C(F)(F)F)cc5)nn4)c3)c1=O)C[C@@H]1OCC[C@@H](C)N1C2=O` are 56.3%, 71.5%, 83.7% and 48.3%.
As to `COc1c2n(cc(C(=O)Nc3ccc(-c4cn(-c5cccc(C(F)(F)F)c5)nn4)cc3)c1=O)C[C@@H]1OCC[C@@H](C)N1C2=O`, in data set [1], the viability at 10 µM was determined as 73.8%. In addition, in data set [2], the viability at 1 µM was determined as 105%. Further, the level, % of control at 1 µM in the data set on BV-2 [3] was determined as 96.8%. Further, in the data set on BV-2 [4], the level, % of control at 10 µM was 90.5%.
With `COc1c2n(cc(C(=O)Nc3cccc(-c4cn(-c5ccccc5Cl)nn4)c3)c1=O)C[C@H]1OC[C@H](C)N1C2=O`, the viability at 10 µM in data set [1] is 43.6%. The viability at 1 µM in data set [2] turned out to be 90.7%. Also, in the data set with BV-2 [3], the level, % of control at 1 µM was 106%. Further, the level, % of control at 10 µM in the data set with BV-2 [4] came to 59.4%.
On the same counts, the results for `COc1c2n(cc(C(=O)Nc3ccc(-c4cn(-c5ccccc5F)nn4)cc3)c1=O)C[C@@H]1OCC[C@@H](C)N1C2=O` are 83%, 101%, 98.5% and 87.2%.
On the same counts, the results for `COc1c2n(cc(C(=O)Nc3cccc(-c4cn(-c5ccccc5I)nn4)c3)c1=O)C[C@H]1OC[C@H](C)N1C2=O` are 48.7%, 99.8%, 143% and 120%.
Regarding `COc1c2n(cc(C(=O)Nc3cccc(-c4cn(-c5ccc(F)cc5)nn4)c3)c1=O)C[C@H]1OC[C@H](C)N1C2=O`, in data set [1], the viability at 10 µM was 68%. Further, the viability at 1 µM in data set [2] is 109%. Also, in the data set on BV-2 [3], the level, % of control at 1 µM is 129%. Also, the level, % of control at 10 µM in the data set with BV-2 [4] was 120%.
In the same order, the values of `COc1c2n(cc(C(=O)Nc3ccc(-c4cn(-c5cc(C(F)(F)F)cc(C(F)(F)F)c5)nn4)cc3)c1=O)C[C@@H]1OCC[C@@H](C)N1C2=O` are 71.1%, 105%, 105% and 99.6%.
Regarding `C[C@@H]1C[C@H]2[C@@H]3CCC4=CC(=O)C=C[C@]4(C)[C@@]3(F)[C@@H](O)C[C@]2(C)[C@@]1(O)C(=O)CO` [DEXAMETHASONE], the level, % of control at 10 µM in the data set on BV-2 [4] was found to be 65%.
For the compound `COc1c2n(cc(C(=O)Nc3cccc(-c4cn(-c5cc(C(F)(F)F)cc(C(F)(F)F)c5)nn4)c3)c1=O)C[C@@H]1OCC[C@@H](C)N1C2=O`, the viability at 10 µM in data set [1] was 71.3%. Also, the viability at 1 µM in data set [2] is 108%. Further, the level, % of control at 1 µM with BV-2 [3] was 81.6%. In addition, the level, % of control at 10 µM in the data set with BV-2 [4] came to 71.1%.
In the same order, the values of `COc1c2n(cc(C(=O)Nc3cccc(-c4cn(-c5ccccc5)nn4)c3)c1=O)C[C@H]1OC[C@H](C)N1C2=O` are 65.6%, 111%, 127% and 132%.
For the compound `COc1c2n(cc(C(=O)Nc3ccc(-c4cn(-c5ccc(F)cc5)nn4)cc3)c1=O)C[C@@H]1OCC[C@@H](C)N1C2=O`, the viability at 10 µM in data set [1] came to 73.3%. For the same compound, the viability at 1 µM in data set [2] is 103%. For the same compound, the level, % of control at 1 µM with BV-2 [3] is 91.9%. Also, the level, % of control at 10 µM in the data set with BV-2 [4] is 82.1%.
In the same order, the values of `COc1c2n(cc(C(=O)Nc3cccc(-c4cn(-c5ccccc5F)nn4)c3)c1=O)C[C@@H]1OCC[C@@H](C)N1C2=O` are 68.6%, 103%, 91.7% and 53.7%.
On the same counts, the results for `COc1c2n(cc(C(=O)Nc3ccccc3-c3cn(-c4ccccc4Cl)nn3)c1=O)C[C@@H]1OCC[C@@H](C)N1C2=O` are 98.3%, 97.9%, 92.4% and 65.9%.
For the compound `COc1c2n(cc(C(=O)Nc3ccc(-c4cn(-c5c(C)cc(C)cc5C)nn4)cc3)c1=O)C[C@@H]1OCC[C@@H](C)N1C2=O`, the viability at 10 µM in data set [1] came to 114%. Moreover, the viability at 1 µM in data set [2] came to 106%. For the same compound, the level, % of control at 1 µM in the data set with BV-2 [3] was determined as 98.9%. The level, % of control at 10 µM with BV-2 [4] worked out at 78.6%.
In the same order, the values of `CCc1ccccc1-n1cc(-c2cccc(NC(=O)c3cn4c(c(OC)c3=O)C(=O)N3[C@H](C)CCO[C@H]3C4)c2)nn1` are 49.8%, 101%, 94.5% and 59.9%.
For the compound `COc1c2n(cc(C(=O)Nc3ccc(-c4cn(-c5ccccc5Cl)nn4)cc3)c1=O)C[C@@H]1OCC[C@@H](C)N1C2=O`, the viability at 10 µM in data set [1] came out at 102%. The viability at 1 µM in data set [2] stood at 100%. Besides, the level, % of control at 1 µM in the data set with BV-2 [3] was 98.8%. The level, % of control at 10 µM with BV-2 [4] is 79.6%.
In the same order, the values of `COc1c2n(cc(C(=O)Nc3cccc(-c4cn(-c5cc(C(F)(F)F)cc(C(F)(F)F)c5)nn4)c3)c1=O)C[C@H]1OC[C@H](C)N1C2=O` are 69.6%, 97.1%, 114% and 97.9%.
On the same counts, the results for `COc1c2n(cc(C(=O)Nc3ccc(-c4cn(-c5ccccc5C(F)(F)F)nn4)cc3)c1=O)C[C@@H]1OCC[C@@H](C)N1C2=O` are 103%, 103%, 109% and 91.1%.
On the same counts, the results for `COc1c2n(cc(C(=O)Nc3cccc(-c4cn(-c5cccc(C(F)(F)F)c5)nn4)c3)c1=O)C[C@H]1OC[C@H](C)N1C2=O` are 43.6%, 90.7%, 104% and 78.4%.
As for `COc1ccccc1-n1cc(-c2ccc(NC(=O)c3cn4c(c(OC)c3=O)C(=O)N3[C@H](C)CCO[C@H]3C4)cc2)nn1`, in data set [1], the viability at 10 µM amounted to 81.6%. The viability at 1 µM in data set [2] worked out at 108%. For the same compound, the level, % of control at 1 µM in the data set on BV-2 [3] amounted to 108%. For the same compound, in the data set with BV-2 [4], the level, % of control at 10 µM was determined as 107%.
Take `COc1c2n(cc(C(=O)Nc3ccccc3-c3cn(-c4c(C)cc(C)cc4C)nn3)c1=O)C[C@@H]1OCC[C@@H](C)N1C2=O`: the viability at 10 µM in data set [1] is 113%. Moreover, the viability at 1 µM in data set [2] was determined as 107%. The level, % of control at 1 µM in the data set on BV-2 [3] amounted to 81.4%. In the data set with BV-2 [4], the level, % of control at 10 µM was found to be 59.1%.
For `COc1c2n(cc(C(=O)Nc3ccccc3-c3cn(-c4ccc(C(F)(F)F)cc4)nn3)c1=O)C[C@@H]1OCC[C@@H](C)N1C2=O`, the viability at 10 µM in data set [1] is 96.3%. The viability at 1 µM in data set [2] was found to be 104%. The level, % of control at 1 µM in the data set on BV-2 [3] was determined as 81%. The level, % of control at 10 µM with BV-2 [4] came out at 84.7%.
On to `COc1c2n(cc(C(=O)Nc3ccc(-c4cn(-c5ccc(C(F)(F)F)cc5)nn4)cc3)c1=O)C[C@@H]1OCC[C@@H](C)N1C2=O`, for which the viability at 10 µM in data set [1] came out at 45.2%. In addition, the viability at 1 µM in data set [2] came out at 53.1%. Further, in the data set with BV-2 [3], the level, % of control at 1 µM is 77.9%. Moreover, the level, % of control at 10 µM in the data set on BV-2 [4] stood at 76.2%.
